What all share (format): cell-based
Assay [1] concerns Thrombin-stimulated Ca2+ response in HT-29 cells. Description: Ca FLIPR TETRA assay, ANTAGONIST mode, activator 1 U/mL Thrombin. Conditions: HT-29 cells, activator 1 U/mL Thrombin. The gist of the method: (§1)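 Inhibition of agonist-evoked calcium signals was measured in human HT-29 colon cells cultured overnight in 1% FBS McCoy's medium. Test compounds preincubated 30 min at r.t.; activators at final concentrations as stated for each readout.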

Assay [2] deals with UTP-stimulated Ca2+ response in HT-29 cells. Description: Ca FLIPR TETRA assay, ANTAGONIST mode, activator 0.6 μM UTP. The conditions noted are these: HT-29 cells, activator 0.6 μM UTP. In outline: as §1
The target of assay [3] is T1, PAR2 (HT-29 cells) (Homo sapiens, UniProt P55085).
T1 construct: host or cells: HT-29
T1 sequence (P55085 26-397): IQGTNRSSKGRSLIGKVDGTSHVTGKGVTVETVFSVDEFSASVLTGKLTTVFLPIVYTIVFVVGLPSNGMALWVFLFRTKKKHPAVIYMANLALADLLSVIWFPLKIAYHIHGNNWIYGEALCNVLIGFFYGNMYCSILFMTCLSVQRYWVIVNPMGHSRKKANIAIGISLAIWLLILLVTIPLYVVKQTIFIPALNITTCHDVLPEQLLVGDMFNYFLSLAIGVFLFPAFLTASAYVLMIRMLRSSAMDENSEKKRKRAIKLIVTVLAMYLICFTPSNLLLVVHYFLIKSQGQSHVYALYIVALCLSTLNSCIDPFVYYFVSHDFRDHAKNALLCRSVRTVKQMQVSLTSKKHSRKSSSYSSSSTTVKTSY
Description: Ca FLIPR TETRA assay, ANTAGONIST mode, activator 8 μM SLIGKV. Conditions: HT-29 cells; activator 8 μM SLIGKV; Method A: maximal concentration of antagonist 0.1, 1 or 2 μM. In outline:
as §1

Assay [4] addresses T1, PAR2 (HT-29 cells). Description: Ca FLIPR TETRA assay, ANTAGONIST mode, activator 3.1 U/mL trypsin. Conditions: HT-29 cells; activator 3.1 U/mL trypsin; Method A: maximal concentration of antagonist 0.1, 1 or 2 μM. In outline:
as §1

Bounds are passed on as bounds.

With `CC1(C)CCC(c2cc(C(C)(C)C)c3oc(C(=O)N4CCC(c5ncc(C(=O)O)cn5)CC4(C)C)cc3n2)CC1` (stereo not drawn) [Example I-427], the IC50 in assay [1] came to 420 nM; in assay [2], 520 nM; in assay [3], 0.5 nM; in assay [4], 0.8 nM.

Regarding `CC(C)(C)c1cc(-c2ccc(Cl)c(F)c2)nc2cc(C(=O)N3CCC(c4ncc(C(=O)O)cn4)CC3(C)C)oc12` (stereo not drawn) [Example I-428], the concentration for half-maximal inhibition (IC50) in assay [1] was determined as 1600 nM; in assay [2], 1700 nM; in assay [3], 0.6 nM; in assay [4] it was 0.7 nM.

In the case of `CC(C)(C)c1cc(-c2ccc(Cl)cc2)nc2cc(C(=O)N3CCC(c4ncc(C(=O)O)cn4)CC3(C)C)oc12` (stereo not drawn) [Example I-429], the IC50 was found to be 400 nM in assay [1], 440 nM in assay [2], 0.4 nM in assay [3] and 0.5 nM in assay [4].

Regarding `Cc1oc(C2CCN(C(=O)c3cc4nc(-c5ccc(Cl)c(F)c5)cc(C(C)(C)C)c4o3)C(C)(C)C2)nc1C(=O)O` (stereo not drawn) [Example I-430], the IC50 was above 2000 nM in assay [1], above 2000 nM in assay [2], 0.6 nM in assay [3] and 0.9 nM in assay [4].

On to `Cc1oc(C2CCN(C(=O)c3cc4nc(-c5ccc(Cl)cc5)cc(C(C)(C)C)c4o3)C(C)(C)C2)nc1C(=O)O` (stereo not drawn) [Example I-431], for which the IC50 is above 2000 nM in assay [1], above 2000 nM in assay [2], 0.7 nM in assay [3] and 0.9 nM in assay [4].

With `CC(C)(C)c1cc(-c2ccc(Cl)c(F)c2)nc2cc(C(=O)N3CCC(CC(=O)NC#N)CC3(C)C)oc12` (stereo not drawn) [Example I-432], the half-maximal inhibitory concentration (IC50) came to 1100 nM in assay [1] (Homo sapiens), 970 nM in assay [2] (Homo sapiens), 0.2 nM in assay [3] and 0.3 nM in assay [4].

In the case of `CC(C)(C)c1cc(-c2ccc(Cl)c(F)c2)nc2cc(C(=O)N3CCC(CC(=O)NS(=O)(=O)C(F)(F)F)CC3(C)C)oc12` (stereo not drawn) [Example I-433], the half-inhibitory concentration (IC50) in assay [1] (Homo sapiens) is above 2000 nM; in assay [2] (Homo sapiens), above 2000 nM; in assay [3], 2.7 nM; in assay [4], 3.4 nM.

Consider `CC(C)(C)c1cc(N2CCC[C@H]2C(F)(F)F)nc2cc(C(=O)N3CCN(C(=O)[C@H]4C[C@](C)(O)C4)CC3(C)C)oc12` [Example I-434], for which the IC50 in assay [1] (Homo sapiens) was above 2000 nM; in assay [2] (Homo sapiens) it was above 2000 nM; in assay [3], 26 nM; in assay [4], 75 nM.

Consider `CC(C)(C)c1cc(N2CCC3(CC2)CC3)nc2cc(C(=O)N3CCN(C(=O)[C@H]4C[C@@](C)(O)C4)CC3(C)C)oc12` [Example I-435], for which the IC50 in assay [1] (Homo sapiens) is above 2000 nM; in assay [2] (Homo sapiens), above 2000 nM; in assay [3], 1.6 nM; in assay [4], 3.8 nM.

On to `CC(C)(C)c1cc(N2CCC(C(F)(F)F)CC2)nc2cc(C(=O)N3CCN(C(=O)[C@H]4C[C@](C)(O)C4)CC3(C)C)oc12` [Example I-437], for which the IC50 in assay [1] (Homo sapiens) was above 2000 nM; in assay [2] (Homo sapiens), above 2000 nM; in assay [3], 6.4 nM; in assay [4] it was 7.8 nM.

For the compound `CC(C)(C)c1cc(N2CCC(C#N)CC2)nc2cc(C(=O)N3CCN(C(=O)[C@H]4C[C@](C)(O)C4)CC3(C)C)oc12` [Example I-438], the IC50 in assay [1] (Homo sapiens) was above 2000 nM; in assay [2] (Homo sapiens), above 2000 nM; in assay [3], 320 nM; in assay [4], 420 nM.

As to `CC1(O)CC(C(=O)N2CCN(C(=O)c3cc4nc(N5CCC(F)(F)C5)cc(C(C)(C)C)c4o3)C(C)(C)C2)C1` (stereo not drawn) [Example I-439], the IC50 in assay [1] (Homo sapiens) is above 2000 nM; in assay [2] (Homo sapiens) it was above 2000 nM; in assay [3], 78 nM; in assay [4], 96 nM.

Consider `CC(C)(C)c1cc(N2CCC[C@@H]2C(F)(F)F)nc2cc(C(=O)N3CCN(C(=O)[C@H]4C[C@](C)(O)C4)CC3(C)C)oc12` [Example I-440], for which the IC50 in assay [1] (Homo sapiens) is above 2000 nM; in assay [2] (Homo sapiens) it was above 2000 nM; in assay [3] it was 520 nM; in assay [4], 640 nM.

In the case of `CC(C)(C)c1cc(N2CC3(C2)CC(F)(F)C3)nc2cc(C(=O)N3CCN(C(=O)[C@H]4C[C@](C)(O)C4)CC3(C)C)oc12` [Example I-441], the IC50 is above 2000 nM in assay [1] (Homo sapiens), above 2000 nM in assay [2] (Homo sapiens), 76 nM in assay [3] and 130 nM in assay [4].

Take `CC(C)(C)c1cc(N2CCC(C(C)(C)O)CC2)nc2cc(C(=O)N3CCN(C(=O)[C@H]4C[C@](C)(O)C4)CC3(C)C)oc12` [Example I-442]: the IC50 in assay [1] (Homo sapiens), in assay [2] (Homo sapiens), in assay [3] and in assay [4] was above 2000 nM throughout.

These data come from patent US20180057505A1, “BICYCLIC HETEROARYL COMPOUNDS USEFUL AS INHIBITORS OF THE PAR-2 SIGNALING PATHWAY” (VERTEX PHARMACEUTICALS INCORPORATED, priority 2015, published 2018).
